The values that follow are results of earlier work, collected in patent US12637441B2, “Prodrugs of the tyrosine kinase inhibitor for treating cancer” (RISEN (SUZHOU) PHARMA TECH CO., LTD., priority 2019, dated 2026).

Take `CNC(=O)c1ccccc1Sc1ccc2c(/C=C/c3ccccn3)n[nH]c2c1` [axitinib, N-methyl-2-((3-((1E)-2-(2-pyridinyl)ethenyl)-1H-indazol-6-yl)thio)benzamide]: the “patients in whom the most common side effects occur” value was “more than 20%”.
